Experimental data: ChEMBL document CHEMBL1150827, “Pseudodestruxins A and B: new cyclic depsipeptides from the coprophilous fungus Nigrosabulum globosum” (2001)
Calls of active or inactive are those of the source. The calls are words filed in the database; no cut-off is given here. Non-standard residues stand in square brackets, D forms with d. Residues, ends and D or L forms follow the SMILES beside them. NMeI = CC[C@H](C)[C@H](NC)C(=O)O; Hica(2S) = CC(C)C[C@H](O)C(=O)O; NMeL = CN[C@@H](CC(C)C)C(=O)O; NMeV = CN[C@H](C(=O)O)C(C)C; βAla = NCCC(=O)O

Experiments:
Bacillus subtilis = assay: Antibacterial activity against Bacillus subtilis ATCC 6051 at 200 ug/disk by standard disk assay; assay type: functional; details: read-out: IZ
Candida albicans = assay: Antifungal activity against Candida albicans ATCC 90029 at 200 ug/disk by standard disk assay; assay type: functional; details: read-out: IZ
Sordaria fimicola [1] = assay: Antifungal activity against Sordaria fimicola NRRL 6459 assessed as inhibition of radial growth at 200 ug/disk by standard disk assay; assay type: functional
Staphylococcus aureus = assay: Antibacterial activity against Staphylococcus aureus ATCC 29213 at 200 ug/disk by standard disk assay; assay type: functional; details: read-out: IZ
Ascobolus [2] = assay: Antifungal activity against Ascobolus furfuraceus NRRL 6460 assessed as inhibition of radial growth at 200 ug/disk by standard disk assay; assay type: functional
Sordaria fimicola [3] = assay: Antifungal activity against Sordaria fimicola NRRL 6459 at 200 ug/disk by standard disk assay; assay type: functional, organism-based
Ascobolus [4] = assay: Antifungal activity against Ascobolus furfuraceus NRRL 6460 at 200 ug/disk by standard disk assay; assay type: functional, organism-based
Helicoverpa zea = assay: Antiinsectan activity against Helicoverpa zea larvae at 100 ppm dietary level by dietary assay; assay type: functional, organism-based

Structure (SMILES) | zone of inhibition at 200 µg/disc (Bacillus subtilis) [mm] | zone of inhibition at 200 µg/disc (Candida albicans) [mm] | inhibition at 200 µg/disc (Sordaria fimicola [1]) [%] | zone of inhibition at 200 µg/disc (Staphylococcus aureus) [mm] | inhibition at 200 µg/disc (Ascobolus [2]) [%] | inhibition zone (IZ) (Sordaria fimicola [3]) | inhibition zone (IZ) (Ascobolus [4]) | Activity (Helicoverpa zea)
CC(/C=C/[C@@]1(C)[C@H](C)CCC(=O)[C@@H]1C)=C\Cc1c(O)c(Cl)c(C)c(C=O)c1O [ASCOCHLORIN] | 12 | 24 | 62 | 11 | 33 |  |  | 
CC[C@H](C)[C@H]1C(=O)N(C)[C@@H](CC(C)C)C(=O)NCCC(=O)O[C@@H](CC(C)C)C(=O)N2CCC[C@H]2C(=O)N[C@@H](Cc2ccccc2)C(=O)N1C [PSEUDODESTRUXIN A] (cyclo(F[NMeI][NMeL][βAla][Hica(2S)]P)) | 8 |  |  |  |  | inactive | inactive | inactive
CC(C)C[C@@H]1OC(=O)CCNC(=O)[C@H](CC(C)C)N(C)C(=O)[C@H](C(C)C)N(C)C(=O)[C@H](Cc2ccccc2)NC(=O)[C@@H]2CCCN2C1=O [PSEUDODESTRUXIN B] (cyclo(F[NMeV][NMeL][βAla][Hica(2S)]P)) | 8 |  |  |  |  | inactive | inactive | 
